Experiment: mn = molality of the nth substance listed, in mol/kg
Conditions: 101 kPa, Liquid; for speed of sound: Sing-around technique in a fixed-path interferometer; for mass density: Vibrating tube method

NCC(=O)NCC(=O)O [glycylglycine] + O
Conditions	mass density, 293.15 K [kg/m3]	mass density, 298.15 K [kg/m3]	mass density, 303.15 K [kg/m3]	speed of sound, 293.15 K [m/s]	speed of sound, 298.15 K [m/s]	speed of sound, 303.15 K [m/s]
m1 = 0.0467	1000.84	999.656	998.24	1486.4	1500.5	1512.8
m1 = 0.103	1003.95	1002.74	1001.3	1491.2	1505.2	1517.2
m1 = 0.1479	1006.4	1005.17	1003.71	1495	1508.8	1520.7
m1 = 0.1998	1009.2	1007.93	1006.45	1499.3	1513	1524.8
m1 = 0.251	1011.92	1010.63	1009.13	1503.5	1517	1528.7
m1 = 0.2973	1014.35	1013.04	1011.52	1507.3	1520.6	1532.2
m1 = 0.347	1016.93	1015.59	1014.07	1511.3	1524.4	1536
m1 = 0.402	1019.73	1018.38	1016.83	1515.7	1528.7	1540.2
m1 = 0.4499	1022.14	1020.78	1019.21	1519.3	1532.3	1543.6

NCC(=O)NCC(=O)NCC(=O)O [glycylglycylglycine] + O
Conditions	mass density, 293.15 K [kg/m3]	mass density, 298.15 K [kg/m3]	mass density, 303.15 K [kg/m3]	mass density, 308.15 K [kg/m3]	speed of sound, 293.15 K [m/s]	speed of sound, 298.15 K [m/s]	speed of sound, 303.15 K [m/s]	speed of sound, 308.15 K [m/s]
m1 = 0.025	1000.18	999.002	997.591	995.964	1485.2	1499.3	1511.6	1522.2
m1 = 0.05	1002.1	1000.91	999.479	997.839	1487.9	1501.9	1514.1	1524.6
m1 = 0.075	1004	1002.79	1001.35	999.696	1490.5	1504.4	1516.5	1527
m1 = 0.0999	1005.88	1004.66	1003.2	1001.54	1493.1	1507	1518.9	1529.3
m1 = 0.1248	1007.76	1006.52	1005.05	1003.37	1495.6	1509.5	1521.3	1531.6
m1 = 0.15	1009.64	1008.38	1006.9	1005.21	1498.1	1511.8	1523.7	1533.9
m1 = 0.175	1011.5	1010.22	1008.72	1007.02	1500.6	1514.2	1526	1536.1
m1 = 0.1926	1012.79	1011.5	1010	1008.29	1502.3	1515.9	1527.7	1537.7
m1 = 0.2706	1018.47	1017.13	1015.58	1013.84	1509.7	1522.9	1534.4	1544.3

O [water] + NCC(=O)NCC(=O)NCC(=O)O
Conditions	mass density [kg/m3]
308.15 K, m2 = 0	994.08
